Patent publication US20240218385A1, “NEGATIVE-STRAND RNA VIRAL VECTOR AND PLANT GENOME EDITING METHOD WITHOUT TRANSFORMATION” (ZHEJIANG UNIVERSITY, priority 2021, published 2024)

Experiments:
Type in all cases: cell-based
[1] = tested on: PDS gene crPDS1 target site; assay: Mutation genotypes at the crPDS1 target in regenerated N. benthamiana plants after antiviral treatment (HTS); conditions: for proportion of M0 plants with mutations at the target site: ribavirin 40 mg/L, favipiravir 40 mg/L, remdesivir 1.2 mg/L
From the text: Plant regeneration through culturing the leaf tissues infected with the TSWV vectors are usually ineffective in eliminating the virus. The embodiment investigated the effect of antiviral treatment during plant regeneration on virus clearance using leaf tissues infected with the TSWV-Cas12a-crRNA vector targeting the N. benthamiana crPDS1 site. […] After 35 days of culturing, explants together with induced callus were transferred to an induction medium without antiviral agents until day 55, and then the regenerated seedlings were transferred to a rooting medium. Three independent biological replicates were included in each group, and 30 plants were randomly selected in each biological replicate of each group for subsequent analysis. Total RNA was extracted from M0 regenerated seedlings, and RT-PCR was conducted using the TSWV N specific primers N/F ([…]; SEQ ID NO: 131) and N/R ([…]; SEQ ID NO: 132) to examine the virus clearance rate. The primers Nb/actin/F ([…]; SEQ ID NO: 133) and Nb/actin/R ([…]; SEQ ID NO: 134) for amplification of the NbActin cDNA served as an internal control. […] In contrast, the mock treatment had only 4.4% of virus-free regenerated plants.
To further evaluate the effect of drug treatment on the efficiency of gene editing in the regenerated plants, DNA sequences containing the target loci were PCR amplified using specific primers (SEQ ID NO: 70 and 71), and the resulting amplicons were high-throughput sequenced. The mutation type of each plant was analyzed, and the editing efficiency of each group was calculated. We used the following definitions to call the putative genotype: wild-type (WT) with editing efficiency (indels %) of 0-10.0%; chimeric (Chi) with 10%<indels %≤35.0%; heterozygous (He) with 35.0%<indels %≤80.0%, i.e., one allele is edited at the target site but the other allele is wild-type; homozygous (Ho) with indels % between 80.0% and 100.0% if both alleles have the same type of editing, and biallelic (Bi) if two alleles produced two different types of editing.

[2] = tested on: TSWV; assay: TSWV clearance from regenerated tobacco plants by antiviral treatment
From the text: (§1) This embodiment further investigates the impact of antiviral drug treatment on virus clearance and mutant plant recovery using tobacco leaf tissues infected with the TSWV vectors for tissue culture and regeneration. We used the recombinant TSWV-Cas12a-crRNA vector described in Example 24 as an example, which targets the crPDS1 target sites of both PDS genes in tobacco. The systemic leaves infected with this virus vector were used as explants for tissue culture and plant regeneration, following the same experimental protocol as described in Example 24.
(§2) The distribution of mutant genotypes in the regenerated plants from each drug treatment group was further analyzed.

[3] = tested on: TSWV; assay: TSWV clearance from regenerated N. benthamiana plants by antiviral treatment during tissue culture (RT-PCR with N-specific primers); conditions: 40 mg/L in medium; explants infected with TSWV-Cas12a-crRNA targeting crPDS1
[4] = tested on: PDS genes crPDS1 target sites; assay: Target mutations in regenerated tobacco plants after antiviral treatment (HTS)
From the text: as §1, §2

**Q.** For `NC(=O)c1nc(F)c[nH]c1=O` [favipiravir], which “total editing efficiency compared to the mock group” value ([1]; M0 plants) is on record?
**A.** lower than that of the mock group

**Q.** And the “proportion of Ho/Bi types compared to the mock group” value ([1]; M0 plants, PDSa and PDSb)?
**A.** significantly higher than that of the mock group

**Q.** And the “proportion of M0 plants with mutations at the target site” value ([1]; PDSa and PDSb)?
**A.** lowest mutation rates

**Q.** `NC(=O)c1ncn([C@@H]2O[C@H](CO)[C@@H](O)[C@H]2O)n1` [ribavirin] was tested. Which “presence of viral vectors in the regenerated plants” value [2] did it give?
**A.** effectively cleared the virus from all of the regenerated plants

**Q.** What about the “TSWV clearance rate (regenerated plants free of virus)” value [3] of the same compound?
**A.** 100%

**Q.** And the “plants with tetra-allelic mutations at the crPDS1 target site” value ([1]; 40 mg/L ribavirin in medium)?
**A.** 28.9%

**Q.** And the “proportion of Chi types compared to the mock group” value ([1]; M0 plants, PDSa and PDSb)?
**A.** decreased

**Q.** And the “proportion of Ho/Bi types compared to the mock group” value ([1]; M0 plants, PDSa and PDSb)?
**A.** increased in both homoeologs

**Q.** What about the “proportion of M0 plants with mutations at the target site” value ([1]; PDSa and PDSb) of the same compound?
**A.** highest proportion of plants with mutations

**Q.** What about the “proportion of mutation types in regenerated plants” value [4] of the same compound?
**A.** increased the proportion of various mutation types

**Q.** What about the “percentage of regenerated plants carrying target mutations” value ([4]; HTS) of the same compound?
**A.** significantly higher than that in the control treatment and other drug treatment groups
